ChEMBL document CHEMBL5653631, “A Potent and Selective ULK1 Inhibitor Suppresses Autophagy and Sensitizes Cancer Cells to Nutrient Stress” (iScience, 2018)

Tests used:
[1] = molecular target: Serine/threonine-protein kinase MRCK alpha (Homo sapiens) (UniProt Q5VT25); test: Inhibition of human recombinant MRCKa at 40 nM related to control ULK1
[2] = molecular target: Serine/threonine-protein kinase PLK1 (Homo sapiens) (UniProt P53350); test: Inhibition of human recombinant PLK1 at 500 nM in presence of ATP by radiometric assay relative to control
[3] = molecular target: T1, Ephrin type-A receptor 3 (Homo sapiens) (UniProt P29320); test: Inhibition of human recombinant EphA3 at 500 nM in presence of ATP by radiometric assay relative to control
T1 sequence (whole entry): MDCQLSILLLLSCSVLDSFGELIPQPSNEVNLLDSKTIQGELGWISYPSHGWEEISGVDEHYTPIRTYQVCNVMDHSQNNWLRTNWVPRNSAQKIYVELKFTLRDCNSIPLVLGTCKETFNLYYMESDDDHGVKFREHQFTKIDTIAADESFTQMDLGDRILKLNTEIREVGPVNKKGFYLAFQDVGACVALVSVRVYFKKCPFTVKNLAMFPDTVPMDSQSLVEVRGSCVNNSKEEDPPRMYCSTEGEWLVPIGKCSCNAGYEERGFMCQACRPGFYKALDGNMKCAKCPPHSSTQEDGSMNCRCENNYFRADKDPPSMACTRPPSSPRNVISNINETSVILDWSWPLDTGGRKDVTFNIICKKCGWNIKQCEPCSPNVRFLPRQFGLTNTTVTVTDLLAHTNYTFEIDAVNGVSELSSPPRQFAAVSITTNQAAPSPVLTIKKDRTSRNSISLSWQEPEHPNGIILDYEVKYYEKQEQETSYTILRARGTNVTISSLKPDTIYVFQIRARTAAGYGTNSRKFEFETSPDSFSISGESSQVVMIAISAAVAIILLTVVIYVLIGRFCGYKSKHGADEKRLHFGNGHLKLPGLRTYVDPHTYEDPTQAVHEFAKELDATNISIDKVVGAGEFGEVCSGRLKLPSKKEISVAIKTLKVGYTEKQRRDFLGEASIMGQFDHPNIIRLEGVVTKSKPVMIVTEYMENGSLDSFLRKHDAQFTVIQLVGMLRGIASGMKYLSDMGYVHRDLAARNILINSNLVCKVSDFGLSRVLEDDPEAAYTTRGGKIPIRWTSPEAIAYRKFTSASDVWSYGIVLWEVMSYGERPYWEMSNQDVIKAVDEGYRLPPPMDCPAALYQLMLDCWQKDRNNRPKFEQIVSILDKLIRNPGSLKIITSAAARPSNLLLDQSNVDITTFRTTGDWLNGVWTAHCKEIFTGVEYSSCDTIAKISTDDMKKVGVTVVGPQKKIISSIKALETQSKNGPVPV

[4] = molecular target: T2, Serine/threonine-protein kinase Nek2 (Homo sapiens) (UniProt P51955); test: Inhibition of human recombinant NEK2 at 500 nM in presence of ATP by radiometric assay relative to control
T2 sequence (whole entry): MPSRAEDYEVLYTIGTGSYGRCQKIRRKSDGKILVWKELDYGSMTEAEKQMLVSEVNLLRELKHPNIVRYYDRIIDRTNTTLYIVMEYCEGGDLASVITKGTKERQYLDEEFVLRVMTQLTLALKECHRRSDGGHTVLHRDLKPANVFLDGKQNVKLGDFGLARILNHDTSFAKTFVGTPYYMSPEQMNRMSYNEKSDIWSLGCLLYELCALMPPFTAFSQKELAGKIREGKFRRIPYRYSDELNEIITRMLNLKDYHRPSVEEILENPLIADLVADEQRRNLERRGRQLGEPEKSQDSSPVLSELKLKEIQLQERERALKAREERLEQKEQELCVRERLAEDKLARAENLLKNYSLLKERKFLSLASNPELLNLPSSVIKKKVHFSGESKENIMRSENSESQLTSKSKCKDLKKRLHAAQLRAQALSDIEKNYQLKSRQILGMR

[5] = molecular target: T3, Serine/threonine-protein kinase ICK (Homo sapiens) (UniProt Q9UPZ9); test: Inhibition of human recombinant ICK at 500 nM in presence of ATP by radiometric assay relative to control
T3 sequence (whole entry): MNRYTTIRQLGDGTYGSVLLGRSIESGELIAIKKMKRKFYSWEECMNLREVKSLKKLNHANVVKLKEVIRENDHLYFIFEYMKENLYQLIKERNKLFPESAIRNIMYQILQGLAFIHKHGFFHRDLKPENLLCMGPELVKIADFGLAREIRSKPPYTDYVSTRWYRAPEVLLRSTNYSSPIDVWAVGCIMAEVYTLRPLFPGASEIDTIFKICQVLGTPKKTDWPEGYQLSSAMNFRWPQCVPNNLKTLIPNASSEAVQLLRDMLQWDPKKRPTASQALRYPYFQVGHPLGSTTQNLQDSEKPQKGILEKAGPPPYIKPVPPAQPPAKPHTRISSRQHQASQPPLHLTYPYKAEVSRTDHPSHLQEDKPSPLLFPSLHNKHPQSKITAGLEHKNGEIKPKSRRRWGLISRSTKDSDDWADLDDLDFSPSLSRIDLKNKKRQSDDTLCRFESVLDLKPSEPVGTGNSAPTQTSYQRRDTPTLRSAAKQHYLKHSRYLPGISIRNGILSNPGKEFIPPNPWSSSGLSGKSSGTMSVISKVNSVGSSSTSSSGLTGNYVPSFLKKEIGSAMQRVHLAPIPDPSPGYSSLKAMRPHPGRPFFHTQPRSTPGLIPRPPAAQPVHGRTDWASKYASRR

[6] = molecular target: Mitogen-activated protein kinase 8 (Homo sapiens) (UniProt P45983); test: Inhibition of human recombinant JNK1 at 15 nM in presence of ATP by radiometric assay relative to control
[7] = molecular target: Hepatocyte growth factor receptor MET (Homo sapiens) (UniProt P08581); test: Inhibition of human recombinant MET at 15 nM in presence of ATP by radiometric assay relative to control
[8] = molecular target: Cyclin-dependent kinase 9 (Homo sapiens) (UniProt P50750); test: Inhibition of human recombinant CDK9 at 15 nM related to control ULK1
Chain of Cyclin-dependent kinase 9 (Homo sapiens) (P50750 whole entry): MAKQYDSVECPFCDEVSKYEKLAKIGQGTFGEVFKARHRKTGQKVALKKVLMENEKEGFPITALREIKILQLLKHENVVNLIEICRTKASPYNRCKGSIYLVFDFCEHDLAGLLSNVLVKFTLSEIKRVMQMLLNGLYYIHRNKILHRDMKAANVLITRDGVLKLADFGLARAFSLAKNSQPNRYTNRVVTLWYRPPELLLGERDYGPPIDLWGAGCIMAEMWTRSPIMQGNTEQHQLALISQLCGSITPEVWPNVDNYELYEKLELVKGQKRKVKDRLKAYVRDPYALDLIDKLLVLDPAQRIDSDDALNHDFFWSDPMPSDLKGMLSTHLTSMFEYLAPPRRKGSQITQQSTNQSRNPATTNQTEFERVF

Chain of Serine/threonine-protein kinase MRCK alpha (Homo sapiens) (Q5VT25 whole entry): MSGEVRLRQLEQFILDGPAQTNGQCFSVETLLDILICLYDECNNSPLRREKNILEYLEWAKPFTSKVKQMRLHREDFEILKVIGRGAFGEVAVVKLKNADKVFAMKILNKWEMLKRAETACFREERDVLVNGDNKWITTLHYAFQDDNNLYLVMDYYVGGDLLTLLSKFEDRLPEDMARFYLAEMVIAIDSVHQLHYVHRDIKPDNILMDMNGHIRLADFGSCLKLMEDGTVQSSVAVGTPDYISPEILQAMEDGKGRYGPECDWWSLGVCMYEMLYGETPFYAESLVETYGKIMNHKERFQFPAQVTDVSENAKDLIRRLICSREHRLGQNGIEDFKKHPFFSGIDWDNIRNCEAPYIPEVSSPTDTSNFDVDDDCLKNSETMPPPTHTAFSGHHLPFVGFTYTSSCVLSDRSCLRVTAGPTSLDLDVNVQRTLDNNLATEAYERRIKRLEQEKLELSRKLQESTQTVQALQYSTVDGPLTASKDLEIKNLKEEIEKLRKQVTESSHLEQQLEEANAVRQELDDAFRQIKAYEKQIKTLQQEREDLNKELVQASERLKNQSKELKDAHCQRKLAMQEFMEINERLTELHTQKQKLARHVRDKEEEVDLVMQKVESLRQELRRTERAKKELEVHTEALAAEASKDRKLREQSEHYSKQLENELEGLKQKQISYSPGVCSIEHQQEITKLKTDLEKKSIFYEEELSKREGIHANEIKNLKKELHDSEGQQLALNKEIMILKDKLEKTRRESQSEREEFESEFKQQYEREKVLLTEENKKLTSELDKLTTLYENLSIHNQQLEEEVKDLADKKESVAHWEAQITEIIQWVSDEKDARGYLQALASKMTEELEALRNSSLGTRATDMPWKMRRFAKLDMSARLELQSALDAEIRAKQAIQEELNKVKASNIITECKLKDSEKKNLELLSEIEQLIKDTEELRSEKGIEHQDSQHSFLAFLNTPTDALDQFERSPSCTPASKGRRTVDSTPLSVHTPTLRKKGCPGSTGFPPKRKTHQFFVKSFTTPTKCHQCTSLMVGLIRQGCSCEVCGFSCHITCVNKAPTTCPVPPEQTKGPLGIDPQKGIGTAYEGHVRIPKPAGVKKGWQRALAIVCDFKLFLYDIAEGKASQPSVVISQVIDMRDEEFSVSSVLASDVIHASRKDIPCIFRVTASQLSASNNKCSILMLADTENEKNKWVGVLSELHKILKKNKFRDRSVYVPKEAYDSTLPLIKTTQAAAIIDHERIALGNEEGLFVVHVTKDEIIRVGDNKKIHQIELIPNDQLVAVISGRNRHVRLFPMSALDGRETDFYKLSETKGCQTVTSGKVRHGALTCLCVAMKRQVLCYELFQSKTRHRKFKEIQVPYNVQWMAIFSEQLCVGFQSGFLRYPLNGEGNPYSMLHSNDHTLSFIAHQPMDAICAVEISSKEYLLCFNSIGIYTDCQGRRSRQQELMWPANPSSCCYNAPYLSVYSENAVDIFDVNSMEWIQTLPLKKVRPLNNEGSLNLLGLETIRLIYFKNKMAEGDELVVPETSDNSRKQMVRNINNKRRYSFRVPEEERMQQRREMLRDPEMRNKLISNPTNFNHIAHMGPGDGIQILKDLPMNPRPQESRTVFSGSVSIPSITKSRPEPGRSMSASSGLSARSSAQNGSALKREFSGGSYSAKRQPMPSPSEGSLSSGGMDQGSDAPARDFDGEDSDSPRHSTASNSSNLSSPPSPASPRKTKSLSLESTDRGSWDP
Chain of Hepatocyte growth factor receptor MET (Homo sapiens) (P08581 whole entry, looked up): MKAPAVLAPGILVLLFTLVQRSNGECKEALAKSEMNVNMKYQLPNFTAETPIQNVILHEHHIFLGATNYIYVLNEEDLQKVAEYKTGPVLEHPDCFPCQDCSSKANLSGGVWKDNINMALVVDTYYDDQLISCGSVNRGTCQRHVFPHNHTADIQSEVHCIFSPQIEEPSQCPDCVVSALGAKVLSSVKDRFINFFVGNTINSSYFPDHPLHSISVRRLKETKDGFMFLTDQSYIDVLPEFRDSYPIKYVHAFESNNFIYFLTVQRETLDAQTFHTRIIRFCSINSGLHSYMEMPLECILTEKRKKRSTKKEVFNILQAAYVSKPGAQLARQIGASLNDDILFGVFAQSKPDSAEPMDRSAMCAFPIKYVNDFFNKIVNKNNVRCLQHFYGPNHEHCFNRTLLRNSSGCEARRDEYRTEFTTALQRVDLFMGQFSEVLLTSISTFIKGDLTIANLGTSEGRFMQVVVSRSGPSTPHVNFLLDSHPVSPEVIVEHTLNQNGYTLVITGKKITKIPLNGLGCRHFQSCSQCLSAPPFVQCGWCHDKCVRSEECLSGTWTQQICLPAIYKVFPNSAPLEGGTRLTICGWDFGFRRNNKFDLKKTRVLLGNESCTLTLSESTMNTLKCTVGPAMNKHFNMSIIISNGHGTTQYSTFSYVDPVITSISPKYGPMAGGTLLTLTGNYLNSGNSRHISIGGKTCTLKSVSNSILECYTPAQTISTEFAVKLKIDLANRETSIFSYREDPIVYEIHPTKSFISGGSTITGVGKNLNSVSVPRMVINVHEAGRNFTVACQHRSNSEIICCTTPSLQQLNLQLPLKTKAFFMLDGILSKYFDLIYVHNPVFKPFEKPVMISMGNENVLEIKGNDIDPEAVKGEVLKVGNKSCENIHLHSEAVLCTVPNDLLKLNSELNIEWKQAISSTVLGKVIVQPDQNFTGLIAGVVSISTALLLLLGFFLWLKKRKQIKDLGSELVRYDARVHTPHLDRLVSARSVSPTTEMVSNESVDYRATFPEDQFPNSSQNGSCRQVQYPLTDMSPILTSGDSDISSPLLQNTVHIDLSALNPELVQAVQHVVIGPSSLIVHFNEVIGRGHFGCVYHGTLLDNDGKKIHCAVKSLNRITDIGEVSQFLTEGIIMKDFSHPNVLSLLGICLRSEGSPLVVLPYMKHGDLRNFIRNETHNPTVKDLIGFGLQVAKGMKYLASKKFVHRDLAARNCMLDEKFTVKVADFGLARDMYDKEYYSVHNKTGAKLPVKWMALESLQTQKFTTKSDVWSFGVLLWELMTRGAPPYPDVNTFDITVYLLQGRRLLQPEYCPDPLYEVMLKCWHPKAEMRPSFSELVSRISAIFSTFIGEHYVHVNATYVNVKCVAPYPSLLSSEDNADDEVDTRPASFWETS
Chain of Serine/threonine-protein kinase PLK1 (Homo sapiens) (P53350 whole entry): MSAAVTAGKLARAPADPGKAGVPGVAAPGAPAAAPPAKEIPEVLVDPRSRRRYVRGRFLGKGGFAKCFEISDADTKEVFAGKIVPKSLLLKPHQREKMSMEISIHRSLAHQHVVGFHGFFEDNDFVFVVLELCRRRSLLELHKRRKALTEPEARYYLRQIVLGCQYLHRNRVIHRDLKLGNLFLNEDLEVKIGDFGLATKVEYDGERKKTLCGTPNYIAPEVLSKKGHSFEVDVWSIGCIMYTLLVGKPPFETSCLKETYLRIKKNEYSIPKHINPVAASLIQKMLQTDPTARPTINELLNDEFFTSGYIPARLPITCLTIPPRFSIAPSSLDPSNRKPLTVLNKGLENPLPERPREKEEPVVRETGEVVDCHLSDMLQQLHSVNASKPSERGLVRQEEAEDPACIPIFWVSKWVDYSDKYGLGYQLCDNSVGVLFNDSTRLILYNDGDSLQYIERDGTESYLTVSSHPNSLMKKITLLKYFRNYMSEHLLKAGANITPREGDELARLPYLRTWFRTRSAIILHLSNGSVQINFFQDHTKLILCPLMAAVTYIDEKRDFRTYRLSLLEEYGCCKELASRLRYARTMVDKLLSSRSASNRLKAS
Chain of Mitogen-activated protein kinase 8 (Homo sapiens) (P45983 whole entry): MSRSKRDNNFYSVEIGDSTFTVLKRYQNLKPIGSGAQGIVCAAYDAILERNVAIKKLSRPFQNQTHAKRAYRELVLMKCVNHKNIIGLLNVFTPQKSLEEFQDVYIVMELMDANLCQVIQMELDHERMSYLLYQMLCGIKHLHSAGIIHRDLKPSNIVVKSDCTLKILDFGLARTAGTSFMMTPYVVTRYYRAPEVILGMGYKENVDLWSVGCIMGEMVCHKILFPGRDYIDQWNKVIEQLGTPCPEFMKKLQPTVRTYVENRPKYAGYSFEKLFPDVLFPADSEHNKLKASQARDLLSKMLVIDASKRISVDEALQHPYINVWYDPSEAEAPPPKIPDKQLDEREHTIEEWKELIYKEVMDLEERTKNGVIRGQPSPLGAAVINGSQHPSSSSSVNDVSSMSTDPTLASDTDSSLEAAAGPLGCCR

For `O=C(N[C@@H](C1CC1)C(F)(F)F)c1cc(-c2cnn3cc(-c4ccc(F)cc4)cnc23)cs1`, which fold change (FC) [1] is on record?
Its fold change (FC) is 0.03.

How did the inhibition [2] turn out when `CNC(=O)c1ccccc1Oc1nc(Nc2cc(OC)c(OC)c(OC)c2)ncc1Br` was run?
The inhibition was 0%.

And the inhibition [3]?
The inhibition was 11%.

What about the inhibition [4] of the same molecule?
Its inhibition is 0%.

What about the inhibition [5] of the same molecule?
The inhibition was 3%.

What does the source list for `CC(C)[C@H](NC(=O)c1cc(-c2cnn3cc(-c4ccc(OCCN5CCCCC5)cc4)cnc23)cs1)C(F)(F)F`?
inhibition [6]: 8%; inhibition [7]: 0%; fold change (FC) [8]: 0
